Earlier results as cited in US20120027718A1, “COMBINATION THERAPY WITH GLATIRAMER ACETATE AND RASAGILINE FOR THE TREATMENT OF MULTIPLE SCLEROSIS” (Teva Pharmaceutical Industries, Ltd., priority 2005, published 2012).

Experiments:
stroke models = details: in vivo
[1] = test system: models of traumatic head injury; details: in vivo

Compound	efficacy in stroke models (stroke models)	efficacy in models of traumatic head injury [1]	relapse rates, progression of disability, appearance of new lesions by MRI and appearance of black holes (multiple sclerosis (MS); daily subcutaneous injections, 20 mg/injection)	efficacy in treating multiple sclerosis (multiple sclerosis (MS); human, in vivo)
C#CCN[C@@H]1CCc2ccccc21 [Rasagiline, R(+)-N-propargyl-1-aminoindan]	effective	effective	–	–
L-glutamic acid polymer with L-alanine, L-lysine and L-tyrosine, acetate (salt) [Glatiramer acetate]	–	–	reduce	effective
